In ChEMBL document CHEMBL3886406, “Substituted pyrrolo[2,3-b]pyridines as ITK and JAK inhibitors” (2015):

Molecular target: T1, Tyrosine-protein kinase ITK/TSK (Homo sapiens, UniProt Q08881)
T1 sequence (Q08881 whole entry): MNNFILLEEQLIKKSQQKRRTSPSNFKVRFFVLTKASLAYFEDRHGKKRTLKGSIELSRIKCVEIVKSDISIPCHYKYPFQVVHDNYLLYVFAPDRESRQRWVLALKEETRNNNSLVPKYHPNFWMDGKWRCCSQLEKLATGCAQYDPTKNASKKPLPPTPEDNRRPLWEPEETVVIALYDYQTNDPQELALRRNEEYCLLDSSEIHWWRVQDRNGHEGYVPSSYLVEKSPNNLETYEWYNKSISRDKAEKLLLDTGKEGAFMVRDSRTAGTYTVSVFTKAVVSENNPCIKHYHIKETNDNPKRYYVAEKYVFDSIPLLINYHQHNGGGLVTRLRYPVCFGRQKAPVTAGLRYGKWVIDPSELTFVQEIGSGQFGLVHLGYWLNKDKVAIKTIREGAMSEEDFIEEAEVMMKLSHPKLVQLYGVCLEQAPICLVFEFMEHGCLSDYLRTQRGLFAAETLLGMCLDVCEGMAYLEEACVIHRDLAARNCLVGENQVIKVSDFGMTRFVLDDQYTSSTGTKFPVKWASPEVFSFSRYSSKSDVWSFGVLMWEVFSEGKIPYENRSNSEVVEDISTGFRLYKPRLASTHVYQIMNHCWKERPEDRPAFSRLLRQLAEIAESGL
Experiment: Biochemical Inhibition Assay: 1H-pyrrolo[2,3-b]pyridine, 1H-pyrazolo[3,4-b]pyridine and 5H-pyrrolo[2,3-b]pyrazine series of compounds exhibited over >100 fold selective against Janus and TEC family of kinases except for the BMX and TXK it had activity of 30 and 45 nM respectively.

IC50	SMILES
in the range around 72.4 nM	C=CC(=O)Nc1cccc(-c2cnc3[nH]cc(-c4cccc(C)c4F)c3c2)c1
in the range around 35 nM	C=CC(=O)Nc1cccc(-c2cnc3[nH]cc(-c4cccc(S(=O)(=O)N(CC)CC)c4)c3c2)c1

The next lines start with the compound.

SMILES	IC50
C=CC(=O)Nc1cccc(-c2cnc3[nH]cc(-c4cc5ccccc5[nH]4)c3n2)c1	in the range around 35 nM
C=CC(=O)Nc1cccc(-c2cnc3[nH]cc(C)c3c2)c1	in the range around 35 nM
C=CC(=O)Nc1cccc(-c2cnc3[nH]cc(Cl)c3c2)c1	in the range around 35 nM
